Active and inactive are the calls of the source. No rule for the calls is given here.
System: CCRIS mutagenicity, Ames/micronucleus/aberration tests
Experiment: CCRIS mutagenicity studies

Measured: mutagenic call

O=Cc1cccc(Cl)c1
inactive: Test System: AMES SALMONELLA TYPHIMURIUM, Strain/Indicator: TA98, Metabolic Activation: NONE, Method: PREINCUBATION inactive; negative | Test System: AMES SALMONELLA TYPHIMURIUM, Strain/Indicator: TA98, Metabolic Activation: RAT LIVER S-9, PCB, Method: PREINCUBATION inactive; negative | Test System: AMES SALMONELLA TYPHIMURIUM, Strain/Indicator: TA100, Metabolic Activation: NONE, Method: PREINCUBATION inactive; negative | Test System: AMES SALMONELLA TYPHIMURIUM, Strain/Indicator: TA100, Metabolic Activation: RAT LIVER S-9, PCB, Method: PREINCUBATION inactive; negative | Test System: AMES SALMONELLA TYPHIMURIUM, Strain/Indicator: TA104, Metabolic Activation: NONE, Method: PREINCUBATION inactive; negative | Test System: AMES SALMONELLA TYPHIMURIUM, Strain/Indicator: TA104, Metabolic Activation: RAT LIVER S-9, PCB, Method: PREINCUBATION inactive; negative | Test System: E.COLI, Strain/Indicator: WP2 UVRA, Metabolic Activation: NONE, Method: PREINCUBATION inactive; negative | Test System: E.COLI, Strain/Indicator: WP2 UVRA, Metabolic Activation: RAT LIVER S-9, PCB, Method: PREINCUBATION inactive; negative

O=C(O)[C@H](O)[C@@H](O)[C@H](O)[C@H](O)CO
inactive: Test System: AMES SALMONELLA TYPHIMURIUM, Strain/Indicator: TA97, Metabolic Activation: NONE, Method: PREINCUBATION inactive; negative | Test System: AMES SALMONELLA TYPHIMURIUM, Strain/Indicator: TA97, Metabolic Activation: RAT, LIVER, S-9, AROCLOR 1254, Method: PREINCUBATION inactive; negative | Test System: AMES SALMONELLA TYPHIMURIUM, Strain/Indicator: TA102, Metabolic Activation: NONE, Method: PREINCUBATION inactive; negative | Test System: AMES SALMONELLA TYPHIMURIUM, Strain/Indicator: TA102, Metabolic Activation: RAT, LIVER, S-9, AROCLOR 1254, Method: PREINCUBATION inactive; negative

O=C(O)c1ccccn1
active: Test System: MOUSE LYMPHOMA, Strain/Indicator: L5178Y (TK+/TK-), Metabolic Activation: NONE, Method: SUSPENSION/PLATE active; positive. reevaluation of results: equivocal | Test System: MOUSE LYMPHOMA, Strain/Indicator: L5178Y (TK+/TK-), Metabolic Activation: RAT, LIVER, S-9, AROCLOR 1254, Method: SUSPENSION/PLATE active; positive. reevaluation of results: equivocal
inactive: Test System: AMES SALMONELLA TYPHIMURIUM, Strain/Indicator: TA98, Metabolic Activation: HAMSTER, LIVER, S-9, AROCLOR 1254, Method: STANDARD PLATE inactive; negative | Test System: AMES SALMONELLA TYPHIMURIUM, Strain/Indicator: TA98, Metabolic Activation: NONE, Method: STANDARD PLATE inactive; negative | Test System: AMES SALMONELLA TYPHIMURIUM, Strain/Indicator: TA98, Metabolic Activation: RAT, LIVER, S-9, AROCLOR 1254, Method: STANDARD PLATE inactive; negative | Test System: AMES SALMONELLA TYPHIMURIUM, Strain/Indicator: TA100, Metabolic Activation: HAMSTER, LIVER, S-9, AROCLOR 1254, Method: STANDARD PLATE inactive; negative | Test System: AMES SALMONELLA TYPHIMURIUM, Strain/Indicator: TA100, Metabolic Activation: NONE, Method: STANDARD PLATE inactive; negative | Test System: AMES SALMONELLA TYPHIMURIUM, Strain/Indicator: TA100, Metabolic Activation: RAT, LIVER, S-9, AROCLOR 1254, Method: STANDARD PLATE inactive; negative | Test System: AMES SALMONELLA TYPHIMURIUM, Strain/Indicator: TA1535, Metabolic Activation: HAMSTER, LIVER, S-9, AROCLOR 1254, Method: STANDARD PLATE inactive; negative | Test System: AMES SALMONELLA TYPHIMURIUM, Strain/Indicator: TA1535, Metabolic Activation: NONE, Method: STANDARD PLATE inactive; negative | Test System: AMES SALMONELLA TYPHIMURIUM, Strain/Indicator: TA1535, Metabolic Activation: RAT, LIVER, S-9, AROCLOR 1254, Method: STANDARD PLATE inactive; negative | Test System: AMES SALMONELLA TYPHIMURIUM, Strain/Indicator: TA1537, Metabolic Activation: HAMSTER, LIVER, S-9, AROCLOR 1254, Method: STANDARD PLATE inactive; negative | Test System: AMES SALMONELLA TYPHIMURIUM, Strain/Indicator: TA1537, Metabolic Activation: NONE, Method: STANDARD PLATE inactive; negative | Test System: AMES SALMONELLA TYPHIMURIUM, Strain/Indicator: TA1537, Metabolic Activation: RAT, LIVER, S-9, AROCLOR 1254, Method: STANDARD PLATE inactive; negative | Test System: CHINESE HAMSTER OVARY CELLS, Strain/Indicator: CHO CELLS (HPRT)/6-THIOGUANINE, Metabolic Activation: NONE, Method: STANDARD PLATE inactive; negative | Test System: MOUSE LYMPHOMA CELLS, Strain/Indicator: L5178Y TK+/-, Metabolic Activation: NONE, Method: TFT RESISTANCE inactive; negative | Test System: MOUSE LYMPHOMA CELLS, Strain/Indicator: L5178Y TK+/-, Metabolic Activation: RAT, LIVER, S-9, AROCLOR 1254, Method: TFT RESISTANCE inactive; negative

Reference: PubChem BioAssay AID1259407 (Chemical Carcinogenesis Research Information System (CCRIS), 2018)
